Source: patent US20220411449A1, “Method for Preparing Heteroleptic Triarylbismuthanes and Compounds Produced by the Same” (UNIVERSITY OF HAWAII, priority 2019, published 2022)
Converted amounts (≈) assume the structure as drawn.

Key:
[1] = test system: Vesicular Stomatitis Virus (Indiana strain); type: cell-based
[2] = test system: Escherichia coli; assay: Disk diffusion zone of inhibition; conditions: for Antibacterial activity against E. coli, in words: disk diffusion, at the concentration tested; for Zone of Inhibition, E. coli: disks with 1-5 μg compound/disk, positive control 30 μg Tetracycline, 22 hours at 37° C., LB agar
[3] = test system: Staphylococcus aureus; assay: Disk diffusion zone of inhibition; conditions: for Antibacterial activity against S. aureus, in words: disk diffusion, at the concentration tested; for Zone of Inhibition, S. aureus: disks with 1-5 μg compound/disk, positive control 5 μg Novobiocin, 22 hours at 37° C., LB agar
[4] = test system: E. coli; assay: Minimum Inhibitory Concentration (MIC) determination, 96-well plates, OD600; conditions: for MIC, E. coli: 24 hours at 37° C., compounds tested at 0-40 μg/mL in duplicate, Kanamycin 0-4 μg/mL
[5] = test system: S. aureus; assay: as above; conditions: for MIC, S. aureus: 24 hours at 37° C., compounds tested at 0-5 μg/mL in duplicate, Kanamycin 0-4 μg/mL

SMILES | % Plaque Reduction [1] | Antibacterial activity against E. coli, in words [2] | Zone of Inhibition, E. coli [2] | Antibacterial activity against S. aureus, in words [3] | Zone of Inhibition, S. aureus [3] | MIC, E. coli [4] | MIC, S. aureus [5] | zone of inhibition at 5 µg/disc ([3]; Staphylococcus aureus, 22 h, read-out: Zone of Inhibition, S. aureus) | zone of inhibition at 30 µg/disc ([2]; Escherichia coli, 22 h, read-out: Zone of Inhibition, E. coli) | MIC ([4]; Escherichia coli, 24 h, read-out: MIC, E. coli) | MIC ([5]; Staphylococcus aureus, 24 h, read-out: MIC, S. aureus)
[I][Bi]([c]1ccccc1)[c]1ccccc1 [Compound 18] | 99.95% | weaker antimicrobial activity against E. coli | 1.3 cm | most effective against S. aureus | 2.2 cm | 10 µg/mL | 0.625 µg/mL |  |  |  | 
COc1cc[c]([Bi]([c]2ccccc2)[c]2ccccc2)cc1 [Compound 3] |  | little activity against E. coli | 0 cm | showed antibacterial activity against S. aureus | 1 cm |  |  |  |  |  | 
CO[C@@H]1[C@@H](OC(N)=O)[C@@H](O)[C@H](Oc2ccc3c(O)c(NC(=O)c4ccc(O)c(CC=C(C)C)c4)c(=O)oc3c2C)OC1(C)C [Novobiocin, reference compound] |  |  |  |  |  |  |  | 20 to 25 mm |  |  | 
Cc1cc(C)[c]([Bi]([I])[c]2c(C)cc(C)cc2C)c(C)c1 [Compound 23] |  | weaker antimicrobial activity against E. coli | 0.6 cm | most effective against S. aureus | 0.9-1.9 cm |  |  |  |  |  | 
Cc1cc[c]([Bi]([O]S(=O)(=O)c2ccc(C)cc2)[O]S(=O)(=O)c2ccc(C)cc2)cc1 [Compound 22] |  |  | 0 cm |  |  |  |  |  |  |  | 
Cc1ccc(S(=O)(=O)[O][Bi]([c]2ccccc2)[c]2ccccc2)cc1 [Compound 14] | 29.7% | weaker antimicrobial activity against E. coli | 1.3 cm | most effective against S. aureus | 2.1 cm | 10 µg/mL | 0.625 µg/mL |  |  |  | 
CN(C)[C@@H]1C(O)=C(C(N)=O)C(=O)[C@@]2(O)C(O)=C3C(=O)c4c(O)cccc4[C@@](C)(O)[C@H]3C[C@@H]12 [Tetracycline, reference compound] |  |  |  |  |  |  |  |  | 18 to 25 mm |  | 
Cc1cc(C)[c]([Bi]([c]2ccc(C#N)cc2)[c]2c(C)cc(C)cc2C)c(C)c1 [Compound 13] |  | little activity against E. coli | 0 cm | showed antibacterial activity against S. aureus | 0.9 cm |  |  |  |  |  | 
Cc1cc[c]([Bi]([O]S(=O)(=O)c2ccc(C)cc2)[O]S(=O)(=O)c2ccc(C)cc2)cc1 [Compound 21] | 38.7% | weaker antimicrobial activity against E. coli | 1 cm | most effective against S. aureus | 1.5 cm | 40 µg/mL | 1.25 μg/mL L |  |  |  | 
COc1cc[c]([Bi]([c]2c(C)cc(C)cc2C)[c]2c(C)cc(C)cc2C)cc1 [Compound 2] |  | little activity against E. coli | 0 cm | showed antibacterial activity against S. aureus | 1 cm |  |  |  |  |  | 
N#Cc1cc[c]([Bi]([c]2ccccc2)[c]2ccccc2)cc1 [Compound 6] |  |  | 0 cm |  | 0 cm |  |  |  |  |  | 
Cc1cc[c]([Bi]([c]2ccc(C#N)cc2)[c]2ccc(C#N)cc2)cc1 [Compound 10] |  | little activity against E. coli | 0 cm | showed antibacterial activity against S. aureus | 0.9 cm |  |  |  |  |  | 
NC[C@H]1O[C@H](O[C@H]2[C@H](O)[C@@H](O[C@H]3O[C@H](CO)[C@@H](O)[C@H](N)[C@H]3O)[C@H](N)C[C@@H]2N)[C@H](O)[C@@H](O)[C@@H]1O [Kanamycin, reference compound] |  |  |  |  |  |  |  |  |  | 0.0625 µg/mL (≈ 0.129 µM) | 0.0625 µg/mL (≈ 0.129 µM)
COc1cc[c]([Bi]([c]2ccc(C)cc2)[c]2ccc(OC)cc2)cc1 [Compound 12] |  | little activity against E. coli | 0 cm | showed antibacterial activity against S. aureus | 1 cm |  |  |  |  |  | 
Cc1cc(C)[c]([Bi]([c]2ccccc2)[c]2c(C)cc(C)cc2C)c(C)c1 [Compound 8] |  | little activity against E. coli | 0 cm | showed antibacterial activity against S. aureus | 1 cm |  |  |  |  |  | 
Cc1ccc(S(=O)(=O)[O][Bi]([O]S(=O)(=O)c2ccc(C)cc2)[c]2ccccc2)cc1 [Compound 16] | 81.8% |  | 1 cm |  | 1.8 cm | 20 µg/mL | 0.625 µg/mL |  |  |  | 
COC(=O)c1cc[c]([Bi]([c]2ccccc2)[c]2ccccc2)cc1 [Compound 4] |  |  | 0 cm |  | 0 cm |  |  |  |  |  | 
COc1cc[c]([Bi]([c]2ccc(C#N)cc2)[c]2ccc(C#N)cc2)cc1 [Compound 9] |  | little activity against E. coli | 0 cm | showed antibacterial activity against S. aureus | 1 cm |  |  |  |  |  | 
Cc1cc(C)[c]([Bi]([c]2ccccc2)[c]2ccccc2)c(C)c1 [Compound 5] |  | weaker antimicrobial activity against E. coli | 0 cm | most effective against S. aureus | 1.6 cm | 40 µg/mL | 0.625 µg/mL |  |  |  | 
Cc1cc[c]([Bi]([c]2c(C)cc(C)cc2C)[c]2c(C)cc(C)cc2C)cc1 [Compound 11] |  | little activity against E. coli | 0 cm | showed antibacterial activity against S. aureus | 0.8 cm |  |  |  |  |  | 
COC(OC)c1cc[c]([Bi]([c]2ccccc2)[c]2ccccc2)cc1 [Compound 1] |  |  | 0 cm |  | 0 cm |  |  |  |  |  | 
Cc1cc[c]([Bi]([O]S(=O)(=O)c2ccc(C)cc2)[c]2ccc(C)cc2)cc1 [Compound 19] | 76.6% | weaker antimicrobial activity against E. coli | 0.8 cm | most effective against S. aureus | 1.8 cm | No inhibition | 2.5 µg/mL |  |  |  | 
COc1cc[c]([Bi]([c]2ccccc2)[c]2ccc(OC)cc2)cc1 [Compound 7] |  | little activity against E. coli | 0 cm | showed antibacterial activity against S. aureus | 1.1 cm |  |  |  |  |  | 
